The record followed here is patent publication US10732108B2, “Fluorogenic water soluble hydrazine sensors” (priority 2017, dated 2020).

The series can be described thus: Hydrazine diffusion into vesicles assay (fluorimetric kinetic hydrazine transmembrane diffusion, SUVs encapsulating compound 2). To be noted: for hydrazine diffusion across a phospholipid membrane, t ½: FIG. 9, membranes of the phosphatidylcholine lipid.

Experimental: (iii) Hydrazine Diffusion into Vesicles Assay
Example 5: Hydrazine Diffusion Assay Procedure
1.0 mg of phosphatidylcholine lipid in chloroform solution was dispensed into a 20 mL scintillation vial, dried under a stream of Ar, and put under house vacuum in a desiccator overnight. The vial was then removed from the desiccator, purged of air with a stream of Ar, closed, and sealed with Parafilm.
6.0 g of monobasic sodium phosphate was dissolved in 1 L MilliQ water to make a 50 mM solution. The pH of the solution was raised to 7.40 by addition of 5N NaOH (typically 9 mL). Depending on the amount of NaOH added, NaCl was added (typically 10 g) to form a 500 mosM buffer.
Loosely capped Falcon tubes containing 45 ml of buffer or MilliQ water were placed in a desiccator and put under house vacuum overnight. The desiccator was then filled with Ar by first capping the inlet with a rubber septum, then piercing the septum with two Ar-filled balloons with attached needles, then simultaneously closing the desiccator valve to vacuum and opening the desiccator valve to the inlet. The desiccator top was then removed and the Falcon tubes quickly closed and sealed with Parafilm.
425-430 mg of hydrazine hydrochloride was weighed and dispensed into a 25 ml reagent bottle pre-filled with Ar; the bottle was then purged of air with a stream of Ar and closed. 25 ml degassed MilliQ water was added to the bottle, along with 300 μl 5N NaOH, under a stream of Ar. The bottle was closed and shaken vigorously. The pH was then adjusted to 7.40±0.02 with 5N NaOH, purging of air with Ar immediately after each pH measurement with a glass electrode. The bottle was purged of air with a stream of Ar, closed, and sealed with Parafilm.
A suspension of Sepharose® CL-4B in 10-30% ethanol (Sigma) was added to an 8.5-cm size-exclusion column. Methanol was washed out of the column by flushing with at least 5 column volumes of 50 mM phosphate buffer (described above, section B). Then the column was capped with a rubber septum, the septum was pierced with an Ar-filled balloon with attached needle, and the column was run until the meniscus descended to the top of the resin. Then, under a stream of Ar, the head space was filled with degassed buffer (described above, section C) and the Falcon tube containing the degassed buffer was purged of any incidental air with a stream of Ar, then closed. […]
The vesicles were loaded onto the column under a stream of Ar and then degassed phosphate buffer was added to the column under a stream of Ar; the column was subsequently run under Ar. […] Vesicles were not visible by eye or upon exposure to a UV lamp; vesicles were detected by directing the beam from a 5 mW green laser pointer horizontally through the cuvette; upon elution of the vesicles, bright scattering was visible.

In the case of `CCCCCCCC/C=C\CCCCCCCC(=O)OC[C@H](COP(=O)([O-])OCC[N+](C)(C)C)OC(=O)CCCCCCC/C=C\CCCCCCCC` [18:1 PC (DOPC)], the “hydrazine diffusion across a phospholipid membrane, t ½” value amounted to 0.907 ± 0.0933 h.
For `CCCCCCCC/C=C\CCCCCCCCCCCC(=O)OC[C@H](COP(=O)([O-])OCC[N+](C)(C)C)OC(=O)CCCCCCCCCCC/C=C\CCCCCCCC` [di22:1 PC (DEPC)], the “hydrazine diffusion across a phospholipid membrane, t ½” value is 1.65 ± 0.1 h. Also, the “N2H4 Diff. t1/2 (min) pH = 6.30” value (pH = 6.30, SUVs of the lipid) was 583 ± 25 min. Also, the “N2H4 Diff. t1/2 (min) pH = 7.40” value (pH = 7.40, SUVs of the lipid) was 98.9 ± 6.0 min.
